# Reference: patent US9155740B2, “Compositions and methods for treatment and prevention of hyperuricemia related health consequences” (priority 2004, dated 2015)
# What was measured:
# [1] = test system: diabetic C57BL6 and eNOS KO mice; test: Streptozotocin diabetic C57BL6 and eNOS KO mice with insulin treatment; type: in vivo, mouse
# Experimental: Experiments were performed following protocol approval by the Animal Care and Use Committee of the University of Florida (IACUC). C57B1/6J mice (C57BL6) and C57BL/6JNos3tm1Unc (eNOS KO mice) (Jackson Laboratory, Bar Harbor, Me.) aged 8 weeks were rendered diabetic with intraperitoneal injections of streptozotocin (STZ) (100 mg/kg/day for 2 consecutive days) freshly dissolved in 0.1M citrate buffer (pH 4.5). Development of diabetes (defined by blood glucose greater than 250 mg/dL) was verified 1 week after the first STZ injection with ONE TOUCH system (Johnson & Johnson, Milpitas, Calif.). For blood sugar control, a single insulin pellet (Linshin Canada Inc, Ontario, Canada) was implanted subcutaneously for 5 months. Blood glucose was monitored every 2 weeks and if the fasting blood glucose was >200 mg/dl, an additional insulin pellet was inserted. Mice were housed in the animal care facility with 12-hour light/dark cycle and allowed free access to food and water. Body weight was recorded monthly. At 3 and 5 months, mice were euthanized for histological analysis. A total of 6 groups were examined with 10 mice for each group at starting points. Non-diabetic (non-DM), diabetic (DM), and diabetic mice (C57BL6 and eNOS KO) with insulin treatment (DMIns) were examined. Systolic blood pressure was assessed as the mean value of 5-10 consecutive measurements obtained in the morning using a tail-cuff sphygmomanometer (Visitech BP2000, Visitech Systems, Inc., Apex, N.C.). BUN was measured by BUN assay (Diagnostic chemicals limited, PE, Canada). Urine in bladder was obtained for urinary albumin excretion at sacrifice. Albumin-to-Creatinine ratio was measured with Albuwell M (Exocell Inc., Philadelphia, Pa.) and Liquid Creatinine Assay (Bioquant, San Diego, Calif.), respectively.
# Kidneys were fixed in Fekete's fixative (mixture of ethanol, distilled water, 37% formalin and glacial acetic acid), and embedded in paraffin. 2-μm sections were stained with the periodic acid-Schiff reagent (PAS) or the periodic acid-methenamine silver (PAM) and counterstained with hematoxylin. Indirect immunoperoxidase staining was performed using antibodies to the endothelial antigen, thrombomodulin (TM) (Yuzawa Y, Brentjens J R, Brett J, Caldwell P R, Esposito C, Fukatsu A, Godman G, Stern D, Andres G: Antibody-mediated redistribution and shedding of endothelial antigens in the rabbit. J Immunol 150: 5633-5646, 1993) or CD34 (BD Pharmingen, San Jose, Calif.) (Fina L, Molgaard H V, Robertson D, Bradley N J, Monaghan P, Delia D, Sutherland D R, Baker M A, Greaves M F: Expression of the CD34 gene in vascular endothelial cells. Blood 75: 2417-2426, 1990), and to vascular smooth muscle cells with anti-smooth muscle actin (Abcam, Cambridge, Mass.). To detect endothelial cell proliferation, double immunostaining was performed with an antibody to the […], Ki67 (Abcam, Cambridge, Mass.) and thrombomodulin. Color was developed using DAB as a chromogen. In double staining, Bjoran Purple (BioCare Medical, Concord, Calif.) was used for thrombomodulin.
# All quantifications were performed in a blinded fashion. Using coronal sections of the kidney, all glomeruli (100-200 of glomeruli per each animal) were examined. Glomerular mesangial expansion, mesangiolysis, and nodular lesions were evaluated. The percentage of mesangiolysis was calculated as the number of glomeruli with mesangiolysis divided by that of total glomeruli. Arteriolar morphology was assessed by indirect peroxidase immunostaining for alpha-smooth muscle actin. […] Afferent arteriolar wall thickness was measured by computer image analysis. For each arteriole, the outline of the vessel and its internal lumen (excluding the endothelium) were generated by using computer analysis to calculate the total wall area (outline-inline) in a minimum of 12 arterioles. Vessels that were cross-sectioned or not sectioned transversally, providing an asymmetrical wall, were excluded from the present study. […]
# Male Sprague-Dawley rats = test: Oxonic acid-induced hyperuricemia in rats, serum uric acid, NOx and blood pressure; type: in vivo, rat
# Experimental: Male Sprague-Dawley rats were housed in standard conditions and fed normal diets. Hyperuricemia was induced with an uricase inhibitor, oxonic acid (OA; 750 mg/kg/day), by gavage, with control rats receiving vehicle. Allopurinol (AP) was used to block hyperuricemia by placing AP in the drinking water (150 mg/L). Rats were divided into four groups: (1) Control, (2) AP only, (3) OA only, and (4) OA+AP. Systolic blood pressure was measured using a tail-cuff sphygmomanometer. The amount of drinking water consumed and changes in body weight were noted. Rats were sacrificed at one and seven days. Serum was analyzed for uric acid concentration and nitrites/nitrates (NOx) by chemiluminescence method. (Prabhakar SS: Inhibition of mesangial iNOS by reduced extracellular pH is associated with uncoupling of NADPH oxidation. Kidney Int 61:2015-2024, 2002). Statistical analysis between subgroups was performed using ANOVA.
# fructose-fed rats [2] = test: Prevention of fructose-induced hyperuricemia with allopurinol; type: in vivo, rat
# Experimental: […] Three groups (control, Fr, and Fr+AP; n=8 each) were designed for this prevention study. Body weight was measured every 2 weeks. Food consumption was measured for 3 days at 8 weeks.
# (§1) Measurements: Systolic blood pressure was assessed as the mean value of 3 consecutive measurements obtained in the morning using a tail-cuff sphygmomanometer (Visitech BP2000, Visitech Systems, Inc., Apex, N.C.). All animals were preconditioned for blood pressure measurements 1 wk before each experiment. Serum uric acid was measured by uricase method. Blood glucose was measured with the ONE TOUCH system (Johnson&Johnson, Milpitas, Calif.). Rat insulin was measured by ELISA (Crystal Chem. Inc., Chicago, Ill.). Insulin sensitivity index was calculated using the formula of Matsuda and DeFronzo (10,000/square root of [fasting glucose×fasting insulin]×[mean glucose×mean insulin during OGTT]), which is highly correlated (r=0.73, p<0.0001) with rate of whole-body glucose disposal during the euglycemic insulin clamp (Matsuda M and DeFronzo R A, Insulin sensitivity indices obtained from oral glucose tolerance testing: comparison with the euglycemic insulin clamp, Diabetes Care 22: 1462-1470, 1999). Serum lipids were measured with an autoanalyzer (VETAce, Alfa Wassermann Inc, West Caldwell, N.J.) or Triglyceride-SL assay kit (Diagnostic chemicals Limited, Charlottetown, PE, Canada).
# (§2) Statistical analysis. All values presented are expressed as mean±SD and analyzed by one-way analysis of variance (ANOVA) or by unpaired Student's t test. Significance was defined as p<0.05.
# fructose-fed rats [3] = test: Treatment of fructose-induced hyperuricemia with allopurinol; type: in vivo, rat; details: for body weight: treatment study, p=NS
# From the text: Treatment of fructose-induced hyperuricemia with allopurinol: Male Sprague-Dawley rats (150-200 g) were housed in standard conditions and fed control (n=7) or 60% fructose diet (Harlan, Madison, Wis., n=14) for 10 weeks. “Control diet” contains 46% carbohydrate, which is mainly composed of starch whereas the fructose diet contained 60% fructose as the carbohydrate. The caloric content of these diets are 3.1 kcal/g and 3.6 kcal/g, respectively. At 4 weeks, blood sample were obtained at 11 am in the morning after 4 h fasting. Half of the fructose-fed rats were administered allopurinol (AP, 150 mg/L in the drinking water) (Sigma, St. Louis, Mo.) for an additional 6 weeks to lower serum uric acid. Fresh drinking water containing allopurinol was replaced every 2 days. Rats were divided into 3 groups: Control; Fructose (Fr); and Fr+AP. At 10 weeks an oral glucose tolerance test was performed, in which rats were fasted overnight (16 hours), and then administered 1.5 g/kg OGTT (50% glucose solution) by gavage. Blood was sampled at 0, 30, 60, 120 min for blood glucose and serum insulin measurement. Rats were then sacrificed.
# as §1, §2
# [4] = test system: Rat Aortic Artery (AA) segments; test: Acetylcholine-induced vasorelaxation of rat aortic artery segments; details: uric acid 0-15 mg/dl; acetylcholine 5 μM; U-46619 0.5 μM
# Experimental: Vasorelaxation of rat Aortic Artery (AA) segments: Rat AA segments (1-0.5 mm diameter×3-4 mm length) were isolated from the 2- to 3- month-old rats, AA segments were suspended in individual organ chambers (Radnoti Four-Unit Tissue Bath System) with 5 ml in Earl's solution, oxygenated with 95% O2 and 5% CO2 at 37° C. After 1 hr equilibration of resting force of 1.5 g, vascular smooth muscle cell or endothelium integrity in this AA segment was confirmed by monitoring 0.5 μM U-46619 (a thromboxane A2 mimetic, sigma)-mediated AA contraction or acetylcholine (5 μM)-mediated vasodilation, respectively. After washing several times, the segments were incubated with various concentration of uric acid (0-15 mg/dl ) in organ bath chamber for 30 min. Stable construction was induced by 0.5 μM U-46619 for 10 min prior to acetylcholine-induced vasorelaxation. The vascular tensions were continuously monitored with an isometric force transducer (Harvard Apparatus, Holliston, Mass.). To standardize the data, U-46619-induced stable increase in vascular tone was set as 100%.
# endothelial function = details: infusion into forearm vein, immediately after infusion; cited from earlier work
# [5] = test system: cultured bovine endothelial cells; details: cited from earlier work
# fructose fed rats = test: 60% dextrose vs 60% fructose diet, pair-fed, lowering uric acid with benzbromarone; type: in vivo, rat; details: 4 weeks
# Experimental: Comparison between 60% dextrose and 60% fructose on the development of metabolic syndrome and the effect of lowering uric acid with Benzbromarone: Rats were pair-fed with 60% dextrose diet or 60% fructose diet for 4 weeks, which are isocaloric. […] At 4 weeks, total food intake per animal was calculated from the food left over. Total food intake is the subtraction of the left-over food from total administered food (1425 g/rat/28days). In addition to the above two groups, a third group of fructose fed rats were administered BZ. Body weight was measured weekly. At 4 weeks, after 5 h fasting, insulin, triglyceride and uric acid were measured. All protocols were approved by the Animal Care Committee of the University of Florida.
# as §1
# [6] = wildtype and eNOS knockout mice
molecule,measurement,setting,value
insulin,development of mesangial expansion,[1]; 3 and 5 months,blocked
same,development of mesangiolysis,[1]; 3 and 5 months,blocked
same,development of the nodular lesions,[1]; 3 and 5 months,blocked
same,blood glucose levels,[1]; both wildtype and eNOS knockout mice,significant improvements
same,up-regulation of VEGF mRNA expression,"[1]; diabetic C57BL6 and eNOS KO mice, whole kidney",blocked
same,increase in inner lumen size of afferent arteriole,[1]; diabetic eNOS KO mice,blocked
same,increase in endothelial cell proliferation and number,"[1]; diabetic mice, renal cortex",largely corrected
same,blood pressure,[1]; eNOS knockout mice,significantly improved
same,survival,"[1]; eNOS knockout mice, 5 months",significantly improved
same,development of proteinuria,[1]; [6],prevented
same,development of renal dysfunction,[1]; [6],prevented
same,development of renal hypertrophy,[1]; [6],prevented
"Oc1ncnc2[nH]ncc12 [Allopurinol, allopurinol]",systolic blood pressure,"Male Sprague-Dawley rats; 7 days, OA vs OA/AP, p=NS",147±11 mm Hg
same,change in NOx concentration,Male Sprague-Dawley rats; rats treated with AP alone,did not show a significant change
same,change in serum UA,Male Sprague-Dawley rats; rats treated with AP alone,did not show a significant change
same,elevation of uric acid by fructose diet,"fructose-fed rats [2]; allopurinol given simultaneously with fructose diet, over the 6 week period",prevented
same,fasting insulin levels,"fructose-fed rats [2]; compared to fructose-fed rats, 8 weeks",significantly lower
same,development of hypertriglyceridemia,fructose-fed rats [2]; prevention study,completely prevented
same,final weight,"fructose-fed rats [2]; prevention study, 8 weeks",426 ± 26 g
same,serum uric acid,fructose-fed rats [3]; AP 150 mg/L drinking water for 6 weeks from week 4 of fructose diet,effective at lowering uric acid
same,insulin sensitivity (index),fructose-fed rats [3]; OGTT at 10 weeks,improved insulin sensitivity
same,hypertriglyceridemia (serum triglycerides),fructose-fed rats [3]; fructose-fed rats,abolished
same,urinary excretion of uric acid,"fructose-fed rats [3]; fructose-fed rats, 9 weeks",prevented the reduced excretion of uric acid
same,fasting hyperinsulinemia,"fructose-fed rats [3]; fructose-fed rats, 10 weeks",reversed
same,systolic blood pressure,"fructose-fed rats [3]; fructose-fed rats, remained higher than control",significantly reduced
same,postprandial hyperinsulinemia,fructose-fed rats [3]; oral glucose tolerance test at 10 weeks,partially but significantly lower
same,body weight,fructose-fed rats [3]; 10 weeks,474 ± 37 g
"O=C(O)c1nc(=O)[nH]c(=O)[nH]1 [OA, oxonic acid]",reduction of serum NOx in hyperuricemic rats,"Male Sprague-Dawley rats; at both 1 day and 7 days, vs control",40-50%
O=c1[nH]c(=O)c2[nH]c(=O)[nH]c2[nH]1 [uric acid],vasorelaxation of aortic arterial rings in response to acetylcholine,[4],dose-dependently blocked
same,endothelial function measured by brachial artery reactivity,endothelial function,does not impair endothelial function
same,NO levels,[5],potently reduce NO levels
"CCc1oc2ccccc2c1C(=O)c1cc(Br)c(O)c(Br)c1 [benzbromarone, Benzbromarone]",hyperinsulinemia,fructose fed rats,significantly improved
same,hypertriglyceridemia,fructose fed rats,significantly improved
same,hyperuricemia,fructose fed rats,significantly improved
"O=C(CO)[C@@H](O)[C@H](O)[C@H](O)CO [Fr, fructose]",final weight,"fructose-fed rats [2]; prevention study, 8 weeks",456 ± 24 g
same,body weight,fructose-fed rats [3]; 10 weeks,522 ± 57 g
